From patent publication US11873320B2 (REATA PHARMACEUTICALS HOLDINGS, LLC, priority 2013, dated 2024)
Read-outs that look alike come from different tables or passages of the source.

What was measured:
[1] = tested on: phosphorylation of IκBα; experiment: TNFα-induced phosphorylation of IκBα in HeLa cells (Western blot); format: cell-based, human; conditions: 6 h pretreatment, TNFα 20 ng/mL 5 min
Experimental: Total and phosphorylated levels of IκBα were evaluated by Western blot.

[2] = tested on: RANKL-induced TRAP activity and formation of osteoclasts; experiment: RANKL-induced osteoclastogenesis in RAW264.7; format: cell-based; conditions: Mus musculus, Osteoclast; 2 h pretreatment, 50 ng/mL RANKL
Text: Osteoclastogenesis is a multi-step differentiation process that results from the binding of RANKL to its receptor, RANK, on cells of hematopoietic origin.

[3] = metabolism in rodent liver microsomes; format: in vitro ADME, mice, rats; conditions: 60-minute incubation, NADPH and UGT
[4] = tested on: bleomycin-induced pulmonary fibrosis; experiment: bleomycin-induced pulmonary fibrosis in mice; format: in vivo, mouse; conditions: 10, 30, or 100 mg/kg, 39 days
Experimental: Bleomycin was given on Day 0. Daily weights were measured. BAL fluid cell counts were obtained at sacrifice. […] No significant improvement in chronic inflammation score, interstitial fibrosis, or number of fibrotic foci was observed.
On the last day of dosing, lung tissue was collected and histology was performed to evaluate the extent of inflammation and interstitial fibrosis. […] Additional evaluation was performed using a rat model of pulmonary fibrosis that has been extensively characterized at the Lovelace Respiratory Research Institute. In this study, rats were challenged with bleomycin or saline by intratracheal administration on day 0. […] For the remaining animals, bronchoalveolar lavage fluid was collected on day 28 for assessment of pro-inflammatory infiltrates, and lung tissue was analyzed for hydroxyproline levels and histopathology. Challenge with bleomycin sulfate induced a substantial release of neutrophils and an increase in soluble collagen in the BALF, as well as an increase in hydroxyproline in the lung.

[5] = tested on: cynomolgus monkeys; experiment: cardiovascular evaluation in conscious cynomolgus monkeys (telemetry); format: in vivo, monkey
Experimental: Animals were instrumented with telemetry transmitters for measurement of body temperature, blood pressure, heart rate, and electrocardiogram (ECG) evaluation. Body temperature, systolic, diastolic, and mean arterial blood pressure, heart rate, and ECG parameters (QRS duration and RR, PR, and QT intervals) were monitored continuously from at least 2 hours pre-dose until at least 24 hours post-dose. ECG tracings were printed at designated time points from the cardiovascular monitoring data and were qualitatively evaluated by a board-certified veterinary cardiologist.
Observations for morbidity, mortality, injury, and availability of food and water were conducted at least twice daily for all animals. Clinical observations were conducted pre-dose, approximately 4 hours post-dose, and following completion of the cardiovascular monitoring period. Body weights were measured and recorded on the day prior to each treatment administration.

[6] = tested on: IFNγ-induced NO production; experiment: IFNγ-induced NO production in RAW264.7 macrophages (Griess reagent); format: cell-based; conditions: Mus musculus
Experimental: Inhibition of IFNγ-induced NO production by AIMs is Nrf2-dependent (Dinkova-Kostova, 2005). […] Nitrite (NO2^−) levels in the media were measured as a surrogate for nitric oxide using the Griess reagent assay. Cell viability was assessed using the WST-1 assay. […] 63170, 63171, 63179, and 63189 are compounds of the formulas: […]

[7] = tested on: CD rats; experiment: pulmonary evaluation in rats; format: in vivo, rat; conditions: doses up to and including 30 mg/kg, single oral dose
Experimental: One additional group of eight animals/sex served as the control and received vehicle (sesame oil).
Observations for mortality, morbidity, injury, and availability of food and water were conducted twice daily for all animals. Clinical observations were conducted prior to dosing, approximately 4 hours post-dose, and following completion of the 8-hour pulmonary monitoring period. […] Pulmonary function (respiratory rate, tidal volume, and minute volume) was monitored for at least 1 hour prior to dosing to establish a baseline and for at least 8 hours post-dose.

[8] = topical administration pharmacokinetics in rats; format: in vivo, rat; conditions: 0.01 to 3% in sesame oil
Text: The topical administration was formulated as a suspension in sesame oil.

[9] = tested on: Sprague Dawley rats; experiment: 14-day rat toxicity study (tissue distribution, Nrf2 targets)
[10] = topical ocular administration pharmacokinetics in rabbits; format: in vivo, rabbit
Experimental: Using rabbits, the ocular absorption and systemic pharmacokinetic behavior of RTA 408 was evaluated.

[11] = tested on: acute radiation dermatitis; experiment: acute radiation dermatitis model, BALB/c mice; format: in vivo, mouse
Experimental: Using male BALB/c mice, a 30 Gy dose of radiation was administered on day 0 (Table 3). […] The remaining mice were sacrificed on day 30 at 4 hours postdose. Plasma was collected on days 12 and 30 as well as irradiated skin samples for mRNA and histological examination. [table]

[12] = tested on: LPS-induced pulmonary inflammation; experiment: LPS-induced pulmonary inflammation in mice, first study (QD×3); format: in vivo, mouse
Experimental: Animals were sacrificed 20 hours after LPS administration. BALF was examined for pro-inflammatory cytokine expression.

[13] = tested on: CYP3A4; experiment: CYP450 induction in cultured human hepatocytes: CYP3A4; format: in vitro ADME; conditions: up to 3 μM
[14] = tested on: rats; experiment: 28-day toxicity study in rats; format: in vivo, rat
Text: One hypothesis for this effect is that AIMs directly or indirectly increase transaminase gene expression in the absence of cellular toxicity.

[15] = 10 mg/kg, four hours after final dose, Day 14

In the case of `CC1(C)CC[C@]2(NC(=O)C(C)(F)F)CC[C@]3(C)[C@H](C(=O)C=C4[C@@]5(C)C=C(C#N)C(=O)C(C)(C)[C@@H]5CC[C@]43C)[C@@H]2C1` [RTA 408, N-((4aS,6aR,6bS,8aR,12aS,14aR,14bS)-11-cyano-2,2,6a,6b,9,9,12a-heptamethyl-10,14-dioxo-1,2,3,4,4a,5,6,6a,6b,7,8,8a,9,10,12a,14,14a,14b-octadecahydropicen-4a-yl)-2,2-difluoropropanamide], the “TNFα-induced phosphorylation of IκBα” value [1] is reported as “inhibited TNFα-induced phosphorylation of IκBα in a dose-dependent manner”, the IC50 [2] is reported as 5 to 10 nM and the parent molecule remaining [3] is reported as greater than 65%. For the same compound, the “inflammation and interstitial fibrosis (histology)” value [4] was “no statistically significant effects”, the “increase in the corrected QT interval (average)” value ([5]; 100 mg/kg oral, not considered related to treatment) was 1.6% and the “effects on cardiovascular function” value ([5]; doses up to and including 100 mg/kg oral) was “no effects on cardiovascular function”. For the same compound, the IC50 ([6]; 2 h pre-treatment, 20 ng/mL IFNγ 24 h, read-out: IC50, suppression of IFNγ-induced NO production) was 3.8 ± 1.2 nM, the IC50 ([6]; Table 15, read-out: NO IC50 (nM), RAW264.7) was 4 ± 1 nM and the basic pulmonary endpoints [7] was “did not produce any adverse effects”. For the same compound, the “plasma concentrations after topical administration” value [8] was “lower plasma concentrations relative to similar oral dosing”, the “brain exposure over in vitro IC50 for NO inhibition” value [9, 15] was 240 fold and the “lung exposure over in vitro IC50 for NO inhibition” value [9, 15] was 294 fold. The “toxicity finding in the high dose group” value ([9]; 100 mg/kg, tissues collected on Day 6) was “observed toxicities”, the “liver NQO1 and GST enzyme activities” value ([9]; PO QD×14) was “induced dose-dependently” and the “eye tissues with the highest concentrations” value ([10]; ocular topical administration) was “cornea, retina, or iris”. For the same compound, the “plasma concentrations after oral vs topical ocular administration” value ([10]; once per day for 5 days) was roughly 100 fold, the “percentage of mice with dermatitis clinical score above 3” value ([11]; oral administration) was “significantly lower” and the “Percentage of mice which scored above 2 in clinical dermatitis exam” value (shortened to “Percentage … in clinical dermatitis exam”) ([11]; topical 0.01%, Day 12) was 0.0%. The “Percentage … in clinical dermatitis exam” value ([11]; topical 0.01%, Day 14) was 0.0%, the “Percentage … in clinical dermatitis exam” value ([11]; topical 0.01%, Day 16) was 20.0% and the “Percentage … in clinical dermatitis exam” value ([11]; topical 0.01%, Day 18) was 50.0%. For the same compound, the “Percentage … in clinical dermatitis exam” value ([11]; topical 0.01%, Day 20) was 10.0%, the “Percentage … in clinical dermatitis exam” value ([11]; topical 0.01%, Day 22) was 40.0% and the “Percentage … in clinical dermatitis exam” value ([11]; topical 0.01%, Day 24) was 40.0%. For the same compound, the “Percentage … in clinical dermatitis exam” value ([11]; topical 0.01%, Day 26) was 40.0%, the “Percentage … in clinical dermatitis exam” value ([11]; topical 0.01%, Day 28) was 20.0% and the “Percentage … in clinical dermatitis exam” value ([11]; topical 0.01%, Day 30) was 10.0%. The “Percentage … in clinical dermatitis exam” value ([11]; topical 0.1%, Day 12) was 7.1%, the “Percentage … in clinical dermatitis exam” value ([11]; topical 0.1%, Day 14) was 10.0% and the “Percentage … in clinical dermatitis exam” value ([11]; topical 0.1%, Day 16) was 20.0%. For the same compound, the “Percentage … in clinical dermatitis exam” value ([11]; topical 0.1%, Day 18) was 80.0%, the “Percentage … in clinical dermatitis exam” value ([11]; topical 0.1%, Day 20) was 60.0% and the “Percentage … in clinical dermatitis exam” value ([11]; topical 0.1%, Day 22) was 40.0%. For the same compound, the “Percentage … in clinical dermatitis exam” value ([11]; topical 0.1%, Day 24) was 30.0%, the “Percentage … in clinical dermatitis exam” value ([11]; topical 0.1%, Day 26) was 10.0% and the “Percentage … in clinical dermatitis exam” value ([11]; topical 0.1%, Day 28) was 0.0%. The “Percentage … in clinical dermatitis exam” value ([11]; topical 0.1%, Day 30) was 0.0%, the “Percentage … in clinical dermatitis exam” value ([11]; topical 1.0%, Day 14) was 20.0% and the “Percentage … in clinical dermatitis exam” value ([11]; topical 1.0%, Day 16) was 10.0%. For the same compound, the “Percentage … in clinical dermatitis exam” value ([11]; topical 1.0%, Day 18) was 70.0%, the “Percentage … in clinical dermatitis exam” value ([11]; topical 1.0%, Day 20) was 30.0% and the “Percentage … in clinical dermatitis exam” value ([11]; topical 1.0%, Day 22) was 10.0%. The “Percentage … in clinical dermatitis exam” value ([11]; topical 1.0%, Day 24) was 0.0%, the “Percentage … in clinical dermatitis exam” value ([11]; topical 1.0%, Day 26) was 0.0% and the “Percentage … in clinical dermatitis exam” value ([11]; topical 1.0%, Day 28) was 0.0%. For the same compound, the “Percentage … in clinical dermatitis exam” value ([11]; topical 1.0%, Day 30) was 0.0%, the “percentage of mice with dermatitis clinical score above 2” value ([11]; topical administration) was “slightly lower” and the “TNFα in BALF” value ([12]; 100 and 150 mg/kg doses) was “significant reduction”. The “IL-12p40 in BALF” value ([12]; all doses (30, 100, 150 mg/kg)) was “significant reduction”, the “induction of enzyme activity” value [13] was “not an inducer” and the transaminases [14] was “Transaminase elevations”.
